These results are taken from US9353082B2, “Pharmaceutical compounds” (BIAL—PORTELA & CA, S.A., priority 2008, dated 2016).

The target of assay [1] is T1, FAAH (Mus musculus, UniProt O08914).
T1 construct: A fragment of liver, left lung lobe and brain without cerebellum were removed; from tissue; host or cells: male NMRI mice; brain (without cerebellum) and liver homogenates
T1 sequence (O08914 1-579): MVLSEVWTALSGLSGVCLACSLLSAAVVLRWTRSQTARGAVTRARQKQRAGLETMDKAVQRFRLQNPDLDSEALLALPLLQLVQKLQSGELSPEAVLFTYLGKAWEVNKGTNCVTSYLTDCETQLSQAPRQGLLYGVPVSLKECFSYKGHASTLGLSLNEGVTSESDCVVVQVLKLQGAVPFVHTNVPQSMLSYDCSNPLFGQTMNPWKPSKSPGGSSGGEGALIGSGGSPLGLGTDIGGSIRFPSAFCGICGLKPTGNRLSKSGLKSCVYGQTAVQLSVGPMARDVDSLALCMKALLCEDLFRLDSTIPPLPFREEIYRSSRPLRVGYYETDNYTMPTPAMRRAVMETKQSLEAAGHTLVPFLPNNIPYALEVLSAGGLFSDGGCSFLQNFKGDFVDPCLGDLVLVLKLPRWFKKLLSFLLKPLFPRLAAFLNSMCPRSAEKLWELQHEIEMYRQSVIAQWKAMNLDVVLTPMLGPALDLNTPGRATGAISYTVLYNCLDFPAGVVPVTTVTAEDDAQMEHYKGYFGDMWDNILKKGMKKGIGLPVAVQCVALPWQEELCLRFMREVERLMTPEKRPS
Put plainly: In vivo FAAH inhibition after oral dosing, remaining activity in brain homogenate (BRh, central nervous tissue). The arrangement: species or system NMRI mice. The following applies: brain homogenate, low value = strong inhibitor; for In Vivo BRh 3 mg · kg · 8 h (remaining FAAH activity): 3 mg/kg oral; for In Vivo BRh 3 mg·kg 8 h (remaining FAAH activity, % of control): 8 h after dosing. As for the experimental part:
(§1) The in vivo test was performed according to the protocol described below. BRh indicates inhibition in central nervous tissue and LVh indicates inhibition in peripheral tissue, in this case liver.
(§2) The animals used for experiments were male NMRI mice (weighing 27-44 g) obtained from Interfauna Ibérica (Spain). Mice were kept 5 per cage, under controlled environmental conditions (12 hr light/dark cycle and room temperature 22±1° C.). Food and tap water were allowed ad libitum and the experiments were all carried out during daylight hours.
(§3) Animals were administered 30 mg/kg or 3 mg/kg compounds of the invention via oral route (8 ml/kg; compound suspended in 0.5% carboxymethylcellulose (CMC) or solubilized in water) or vehicle (controls) using animal feeding stainless steel curve needles (Perfectum, U.S.A.). Fifteen minutes before sacrifice animal were anesthetized with pentobarbital 60 mg/kg administered intraperitoneally. A fragment of liver, left lung lobe and brain without cerebellum were removed and put in plastic vials containing membrane buffer (3 mM MgCl2, 1 mM EDTA, 50 mM Tris HCl pH 7.4). Tissues were stored at −30° C. until analysis.
(§4) Animals were always fasted overnight before administration of compounds except for time points of >18 h, where food was removed on the morning of day of administration and the compound was administered in the afternoon of the same day. Animals were then given water but nothing else.
(§5) Tissues were thawed on ice and were homogenized in 10 volumes of membrane buffer (3 mM MgCl2, 1 mM EDTA, 50 mM Tris HCl pH 7.4) with either Potter-Elvejhem (brains—8 strokes at 500 rpm) or Heidolph Diax (livers—2 strokes at position 5 for 20 sec with 30 sec pauses).
(§6) Total protein in tissues was determined with the BioRad Protein Assay (BioRad) using a standard curve of BSA (50-250 μg/ml).
(§7) Reaction mix (total volume of 200 μl) contained: […] (2 μM AEA+5 nM ^3H-AEA), 0.1% fatty acid free BSA, 15 μg (brain), 5 μg (liver) or 50 μg (lung) protein, in 1 mM EDTA, 10 mM Tris pH 7.6. After a […] pre-incubation period at 37° C., reaction was started by the addition of the substrate solution (cold AEA+radiolabelled AEA+BSA). Reaction was carried out for 10 min (brain and lung) or […] (liver) before termination by the addition of 400 μl activated charcoal suspension (8 g charcoal in 32 ml 0.5 M HCl in continuous agitation). After a […] incubation period at room temperature with agitation, charcoal was sedimented by centrifugation in microfuge (10 min at 13000 rpm). 200 μl of the supernatant were added to 800 μl Optiphase Supermix scintillation cocktail previously distributed in 24-well plates. Counts per minute (cpm) were determined in a MicrobetaTriLux scintillation counter.
(§8) In each assay blanks (without protein) were prepared.
(§9) The percentage of remaining enzymatic activity was calculated in respect to controls and after blank subtraction.

Assay [2] has as its target T1, FAAH. Description: In vivo FAAH inhibition after oral dosing, remaining activity in liver homogenate (LVh, peripheral tissue). The arrangement: species or system NMRI mice. The following applies: liver homogenate, low value = strong inhibitor; for In Vivo LVh 3 mg · kg · 8 h (remaining FAAH activity): 3 mg/kg oral; for In Vivo LVh 3 mg·kg 8 h (remaining FAAH activity, % of control): 8 h after dosing. As for the experimental part:
as §1, §2, §3, §4, §5, §6, §7, §8, §9

Counter-ions that a name gives are not always drawn.

In the case of `CN(C(=O)n1cnc(-c2ccc(-c3noc(=O)[nH]3)cc2)c1)C1CCCCC1` [Compound 551, N-cyclohexyl-N-methyl-4-(4-(5-oxo-4,5-dihydro-1,2,4-oxadiazol-3-yl)phenyl)-1H-imidazole-1-carboxamide], the “In Vivo BRh 3 mg · kg · 8 h (remaining FAAH activity)” value on FAAH [1] is 85.2 % of control. Besides, at FAAH [2], the “In Vivo LVh 3 mg · kg · 8 h (remaining FAAH activity)” value is 3.8 % of control.

As for `COc1ccc(-c2cn(C(=O)N(C)C3CCN(Cc4ccccc4)CC3)cn2)cc1` [Compound no. 419, N-(1-benzylpiperidin-4-yl)-4-(4-methoxyphenyl)-N-methyl-1H-imidazole-1-carboxamide], the “In Vivo BRh 3 mg·kg 8 h (remaining FAAH activity, % of control)” value on FAAH [1] is 0.8 % of control. For the same compound, the “In Vivo LVh 3 mg·kg 8 h (remaining FAAH activity, % of control)” value on FAAH [2] was 1 % of control.

As for `CCCN1CCC(N(C)C(=O)n2cnc(-c3ccc[n+]([O-])c3)c2)CC1` [Compound no. 519, 3-(1-(methyl(1-propylpiperidin-4-yl)carbamoyl)-1H-imidazol-4-yl)pyridine 1-oxide], on FAAH [1], the “In Vivo BRh 3 mg · kg · 8 h (remaining FAAH activity)” value is reported as 82 % of control. For the same compound, the “In Vivo LVh 3 mg · kg · 8 h (remaining FAAH activity)” value on FAAH [2] was 4.4 % of control.

Take `COc1ccc(-c2cn(C(=O)N(C)C3CCCCC3)cn2)cc1C(N)=O` [Compound no. 482, 4-(3-carbamoyl-4-methoxyphenyl)-N-cyclohexyl-N-methyl-1H-imidazole-1-carboxamide]: the “In Vivo BRh 3 mg·kg 8 h (remaining FAAH activity, % of control)” value on FAAH [1] is on record as 83.2 % of control. In addition, on FAAH [2], the “In Vivo LVh 3 mg·kg 8 h (remaining FAAH activity, % of control)” value is reported as 16.7 % of control.

With `CCN1CCC(N(C)C(=O)n2cnc(-c3cccc(OC)c3)c2)CC1` [Compound no. 502, N-(1-ethylpiperidin-4-yl)-4-(3-methoxyphenyl)-N-methyl-1H-imidazole-1-carboxamide], the “In Vivo BRh 3 mg · kg · 8 h (remaining FAAH activity)” value on FAAH [1] is 50.2 % of control. In addition, the “In Vivo LVh 3 mg · kg · 8 h (remaining FAAH activity)” value on FAAH [2] was 11.5 % of control.

On to `CN(C(=O)n1cnc(-c2cccc(C(=O)NO)c2)c1)[C@H]1CC[C@H](O)CC1` [Compound 566, 4-(3-(hydroxycarbamoyl)phenyl)-N-((1r,4r)-4-hydroxycyclohexyl)-N-methyl-1H-imidazole-1-carboxamide], for which the “In Vivo BRh 3 mg · kg · 8 h (remaining FAAH activity)” value at FAAH [1] was 88.5 % of control. In addition, the “In Vivo LVh 3 mg · kg · 8 h (remaining FAAH activity)” value at FAAH [2] is on record as 69.8 % of control.

On to `CCCN1CCC(N(C)C(=O)n2cnc(-c3ccc(O)c(C(N)=O)c3)c2)CC1` [Compound 554, 4-(3-carbamoyl-4-hydroxyphenyl)-N-methyl-N-(1-propylpiperidin-4-yl)-1H-imidazole-1-carboxamide], for which, at FAAH [1], the “In Vivo BRh 3 mg · kg · 8 h (remaining FAAH activity)” value is reported as 102.2 % of control. Moreover, at FAAH [2], the “In Vivo LVh 3 mg · kg · 8 h (remaining FAAH activity)” value is 85.6 % of control.

For `CN(C(=O)n1cnc(-c2ccc(S(=O)(=O)N3CCC(O)CC3)cc2)c1)C1CCCCC1` [Compound no. 432, N-cyclohexyl-4-(4-(4-hydroxypiperidin-1-ylsulfonyl)phenyl)-N-methyl-1H-imidazole-1-carboxamide], at FAAH [1], the “In Vivo BRh 3 mg·kg 8 h (remaining FAAH activity, % of control)” value is 96.1 % of control. Moreover, the “In Vivo LVh 3 mg·kg 8 h (remaining FAAH activity, % of control)” value at FAAH [2] is 65.5 % of control.

Regarding `CC1(C)COCN1C(=O)n1nnc2cccnc21` [Compound no. 368, (3H-[1,2,3]triazolo[4,5-b]pyridin-3-yl)(4,4-dimethyloxazolidin-3-yl)methanone], at FAAH [1], the “In Vivo BRh 3 mg·kg 8 h (remaining FAAH activity, % of control)” value is 4.9 % of control. Also, on FAAH [2], the “In Vivo LVh 3 mg·kg 8 h (remaining FAAH activity, % of control)” value was 9.6 % of control.

As for `COc1ccc2nnn(C(=O)N3COCC3(C)C)c2c1` [Compound 293, (4,4-dimethyloxazolidin-3-yl)(6-methoxy-1H-benzo[d][1,2,3]triazol-1-yl)methanone], the “In Vivo BRh 3 mg·kg 8 h (remaining FAAH activity, % of control)” value at FAAH [1] is 3.5 % of control. Besides, the “In Vivo LVh 3 mg·kg 8 h (remaining FAAH activity, % of control)” value on FAAH [2] is reported as 1.7 % of control.

As to `CN(C(=O)n1cnc(-c2ccc(O)cc2)c1)C1CCN(Cc2ccccc2)CC1` [Compound no. 451, N-(1-benzylpiperidin-4-yl)-4-(4-hydroxyphenyl)-N-methyl-1H-imidazole-1-carboxamide hydrobromide], the “In Vivo BRh 3 mg·kg 8 h (remaining FAAH activity, % of control)” value on FAAH [1] is listed as 1.1 % of control. At FAAH [2], the “In Vivo LVh 3 mg·kg 8 h (remaining FAAH activity, % of control)” value is given as 0.3 % of control.

Consider `CN(C(=O)n1cnc(-c2ccc(O)c(C(N)=O)c2)c1)C1CCOCC1` [Compound no. 513, 4-(3-carbamoyl-4-hydroxyphenyl)-N-methyl-N-(tetrahydro-2H-pyran-4-yl)-1H-imidazole-1-carboxamide], for which the “In Vivo BRh 3 mg · kg · 8 h (remaining FAAH activity)” value at FAAH [1] was 90.3 % of control. At FAAH [2], the “In Vivo LVh 3 mg · kg · 8 h (remaining FAAH activity)” value was 14.4 % of control.

With `CC1(C)COCN1C(=O)n1nnc2cc(C(=O)NO)ccc21` [Compound no. 440, 1-(4,4-dimethyloxazolidine-3-carbonyl)-N-hydroxy-1H-benzo[d][1,2,3]triazole-5-carboxamide], on FAAH [1], the “In Vivo BRh 3 mg·kg 8 h (remaining FAAH activity, % of control)” value is on record as 23.2 % of control. The “In Vivo LVh 3 mg·kg 8 h (remaining FAAH activity, % of control)” value on FAAH [2] is recorded as 3.3 % of control.

`CN(C(=O)n1cnc(-c2ccc[n+]([O-])c2)c1)C1CCN(Cc2ccccc2)CC1` [Compound no. 459, 3-(1-((1-benzylpiperidin-4-yl)(methyl)carbamoyl)-1H-imidazol-4-yl)pyridine 1-oxide]: the “In Vivo BRh 3 mg·kg 8 h (remaining FAAH activity, % of control)” value on FAAH [1] is 1.3 % of control. Moreover, the “In Vivo LVh 3 mg·kg 8 h (remaining FAAH activity, % of control)” value on FAAH [2] was 1.9 % of control.

For the compound `CC1(C)COCN1C(=O)n1cnc(-c2ccc(O)c(N)c2)c1.Cl` [Compound no. 358, (4-(3-amino-4-hydroxyphenyl)-1H-imidazol-1-yl)(4,4-dimethyloxazolidin-3-yl)methanone hydrochloride], the “In Vivo BRh 3 mg·kg 8 h (remaining FAAH activity, % of control)” value on FAAH [1] is listed as 117.1 % of control. In addition, the “In Vivo LVh 3 mg·kg 8 h (remaining FAAH activity, % of control)” value at FAAH [2] was 81.2 % of control.

Turning to `CCCN1CCC(N(C)C(=O)n2cnc(-c3cccc(OC)c3)c2)CC1` [Compound no. 498, 4-(3-methoxyphenyl)-N-methyl-N-(1-propylpiperidin-4-yl)-1H-imidazole-1-carboxamide], the “In Vivo BRh 3 mg · kg · 8 h (remaining FAAH activity)” value at FAAH [1] is listed as 21.4 % of control. Besides, the “In Vivo LVh 3 mg · kg · 8 h (remaining FAAH activity)” value at FAAH [2] is 12.6 % of control.

Turning to `CN(C(=O)n1cnc(-c2cccc(C(=O)NO)c2)c1)C1CCCCC1` [Compound no. 424, N-cyclohexyl-4-(3-(hydroxycarbamoyl)phenyl)-N-methyl-1H-imidazole-1-carboxamide], the “In Vivo BRh 3 mg·kg 8 h (remaining FAAH activity, % of control)” value at FAAH [1] is recorded as 1 % of control. In addition, on FAAH [2], the “In Vivo LVh 3 mg·kg 8 h (remaining FAAH activity, % of control)” value is reported as 0.5 % of control.

`CN(C)c1ccc(-c2cn(C(=O)N(C)C3CCCCC3)cn2)cc1[N+](=O)[O-]` [Compound no. 435, N-cyclohexyl-4-(4-(dimethylamino)-3-nitrophenyl)-N-methyl-1H-imidazole-1-carboxamide]: the “In Vivo BRh 3 mg·kg 8 h (remaining FAAH activity, % of control)” value at FAAH [1] was 4.3 % of control. Further, the “In Vivo LVh 3 mg·kg 8 h (remaining FAAH activity, % of control)” value on FAAH [2] is on record as 4.9 % of control.
